Results published in ChEMBL document CHEMBL5360653, “Marine Alkaloid Lepadins E and H Induce Ferroptosis for Cancer Chemotherapy” (J Med Chem, 2023).
Active and inactive are the calls of the source. No cut-off for these calls is given here.

Experiments:
HeLa [1] = test: Cytotoxicity against human HeLa cells incubated for 72 hrs by MTT assay; assay type: functional, cell-based
SMMC-7721 = test: Cytotoxicity against human SMMC-7721 cells incubated for 72 hrs by MTT assay; assay type: functional, cell-based; settings: SMMC-7721, 72 h
A549 = test: Cytotoxicity against human A549 cells incubated for 72 hrs by MTT assay; assay type: functional, cell-based; settings: A549, 72 h
MCF7 = test: Cytotoxicity against human MCF7 cells incubated for 72 hrs by MTT assay; assay type: functional, cell-based; settings: MCF7, 72 h
SH-SY5Y = test: Cytotoxicity against human SH-SY5Y cells incubated for 72 hrs by MTT assay; assay type: functional, cell-based
HepG2 = test: Cytotoxicity against human HepG2 cells incubated for 72 hrs by MTT assay; assay type: functional, cell-based; settings: HepG2, 72 h
NCI-H1155 = test: Cytotoxicity against human NCI-H1155 cells incubated for 72 hrs by MTT assay; assay type: functional, cell-based; settings: NCI-H1155, 72 h
SK-OV-3 = test: Cytotoxicity against human SK-OV-3 cells incubated for 72 hrs by MTT assay; assay type: functional, cell-based; settings: SK-OV-3, 72 h
MDA-MB-231 = test: Cytotoxicity against human MDA-MB-231 cells incubated for 72 hrs by MTT assay; assay type: functional, cell-based; settings: MDA-MB-231, 72 h
NCI-H1355 = test: Cytotoxicity against human NCI-H1355 cells incubated for 72 hrs by MTT assay; assay type: functional, cell-based; settings: NCI-H1355, 72 h
L02 = test: Cytotoxicity against human L02 cells incubated for 72 hrs by MTT assay; assay type: functional, cell-based; settings: L02, 72 h
HeLa [2] = test: Inhibition of colony formation in human HeLa cells treated for 24 hrs measured by paraformaldehyde based crystal violet staining analysis; assay type: functional, cell-based; settings: dose 5-9 µM
HeLa [3] = test: Inhibition of colony migration in human HeLa cells treated for 24 hrs measured by paraformaldehyde based crystal violet staining analysis; assay type: functional, cell-based; settings: dose 0.625-10 µM
HeLa [4] = test: Inhibition of colony formation in human HeLa cells treated at 9 uM for 24 hrs measured by paraformaldehyde based crystal violet staining analysis; assay type: functional, cell-based
HeLa [5] = test: Inhibition of colony formation in human HeLa cells treated upto 6 uM for 24 hrs measured by paraformaldehyde based crystal violet staining analysis; assay type: functional, cell-based
HeLa [6] = test: Induction of apoptosis in human HeLa cells assessed as increase in cleaved PARP expression level at 10 uM by immunoblotting analysis; assay type: functional, cell-based
HeLa [7] = test: Induction of apoptosis in human HeLa cells assessed as apoptotic cells incubated at 10 uM for 24 hrs measured by annexin V-PI staining based FITC analysis (Rvb ~ 5%); assay type: functional
HeLa [8] = test: Induction of apoptosis in human HeLa cells assessed as viable cells incubated at 4 uM for 24 hrs measured by annexin V-PI staining based FITC analysis (reference value: 93.9%); assay type: functional; settings: read-out: Activity
HeLa [9] = test: Induction of apoptosis in human HeLa cells assessed as late apoptotic cells incubated at 4 uM for 24 hrs measured by annexin V-PI staining based FITC analysis (reference value: 1.54%); assay type: functional
HeLa [10] = test: Induction of apoptosis in human HeLa cells assessed as viable cells incubated at 6 uM for 24 hrs measured by annexin V-PI staining based FITC analysis (reference value: 93.9%); assay type: functional; settings: read-out: Activity
HeLa [11] = test: Induction of apoptosis in human HeLa cells assessed as early apoptotic cells incubated at 6 uM for 24 hrs measured by annexin V-PI staining based FITC analysis (reference value: 3.94%); assay type: functional
HeLa [12] = test: Induction of apoptosis in human HeLa cells assessed as viable cells incubated at 8 uM for 24 hrs measured by annexin V-PI staining based FITC analysis (reference value: 93.9%); assay type: functional; settings: read-out: Activity
HeLa [13] = test: Induction of apoptosis in human HeLa cells assessed as viable cells incubated at 10 uM for 24 hrs measured by annexin V-PI staining based FITC analysis (reference value: 93.9%); assay type: functional; settings: read-out: Activity
HeLa [14] = test: Induction of apoptosis in human HeLa cells assessed as early apoptotic cells incubated at 10 uM for 24 hrs measured by annexin V-PI staining based FITC analysis (reference value: 3.94%); assay type: functional
HeLa [15] = test: Upregulation of p53 expression in human HeLa cells measured at 4 to 10 uM for 24 hrs by Western blotting analysis; assay type: functional, cell-based; settings: dose 4-10 µM
HeLa [16] = test: Upregulation of p21 expression in human HeLa cells measured at 4 to 10 uM for 24 hrs by Western blotting analysis; assay type: functional, cell-based; settings: dose 4-10 µM
HeLa [17] = test: Induction of ROS generation in human HeLa cells assessed as increase in ROS level; assay type: functional, cell-based; settings: dose 4-10 µM
HeLa [18] = test: Cytotoxicity against human HeLa cells assessed as increase in cell viability pretreated with NAC for 1 hr followed by compound addition at 2.5 to 20 uM for 24 hrs relative to control; assay type: functional; settings: dose 2.5-20 µM
HeLa [19] = test: Effect on lipid peroxidation in human HeLa cells measured at 10 to 12 uM for 4 hrs by C11-BODIPY581/591 staining based flow cytometric analysis relative to control; assay type: functional; settings: dose 10-12 µM
HeLa [20] = test: Cytotoxicity against human HeLa cells assessed as increase in cell viability pretreated with Ferrostatin-1 for 4 hrs followed by compound addition at 10 uM for 24 hrs; assay type: functional, cell-based
HeLa [21] = test: Cytotoxicity against human HeLa cells assessed as increase in cell viability pretreated with DFO for 4 hrs followed by compound addition at 10 uM for 24 hrs; assay type: functional, cell-based
HeLa [22] = test: Induction of ferroptosis in human HeLa cells assessed as decrease in cellular GSH level measured at 6 uM for 24 hrs by transmission electron microscopic analysis; assay type: functional, cell-based
HeLa [23] = test: Induction of apoptosis in human HeLa cells assessed as late apoptotic cells incubated at 4 uM for 24 hrs measured by annexin V-PI staining based FITC analysis (reference value: 1.81%); assay type: functional
HeLa [24] = test: Induction of apoptosis in human HeLa cells assessed as viable cells incubated at 10 uM for 24 hrs measured by annexin V-PI staining based FITC analysis (reference value: 94.2%); assay type: functional; settings: read-out: Activity
HeLa [25] = test: Induction of apoptosis in human HeLa cells assessed as necrotic cells incubated at 10 uM for 24 hrs measured by annexin V-PI staining based FITC analysis (reference value: 0.79%); assay type: functional
HeLa [26] = test: Induction of ferroptosis in human HeLa cells assessed as disappearance of mitochondrial cristae measured at 6 uM for 24 hrs by transmission electron microscopic analysis; assay type: functional, cell-based
HeLa [27] = test: Induction of ferroptosis in human HeLa cells assessed as downregulation of GPX4 level measured at 4 to 10 uM for 24 hrs by Western blotting analysis; assay type: functional, cell-based; settings: dose 4-10 µM
B16-F10 = test: Induction of ferroptosis in mouse B16-F10 cells assessed as cell viability in presence of DFO at 10 uM; assay type: functional, cell-based
[28] = Toxicity in immunocompetent C57BL/6J mouse allografted with B16-F10 cells assessed as change of organ index in spleen administered at 30 mg/kg, ip daily for 14 days by hematoxylin and eosin staining analysis; assay type: organism-based; settings: in vivo, 336 h, time 14 day
[29] = Toxicity in immunocompetent C57BL/6J mouse allografted with B16-F10 cells assessed as tissue damage in heart administered at 30 mg/kg, ip daily for 14 days by hematoxylin and eosin staining analysis; assay type: organism-based; settings: in vivo, 336 h, time 14 day

Work on CCCCC/C=C/C(=O)O[C@@H]1C[C@H]2[C@@H](CCCC[C@H](O)CCC)CCC[C@H]2N[C@H]1C yielded an IC50 (HeLa [1]) of 2.67 µM, an IC50 (SMMC-7721) of 3.93 µM and an IC50 (A549) of 5.93 µM. The IC50 (MCF7) was 5.95 µM, the IC50 (SH-SY5Y) was 6.19 µM and the IC50 (HepG2) was 6.2 µM. It also gave an IC50 (NCI-H1155) of 7.88 µM, an IC50 (SK-OV-3) of 7.94 µM and an IC50 (MDA-MB-231) of 8.04 µM. For the same molecule, the IC50 (NCI-H1355) was 8.8 µM, the IC50 (L02) was 18.7 µM and the inhibition (HeLa [2]) was “Dose-Dependent Effect”. The inhibition (HeLa [3]) was “Dose-Dependent Effect”, the inhibition (HeLa [4]) was “Active” and the inhibition (HeLa [5]) was “inactive”. For the same molecule, the Activity (HeLa [6]) was “Active”, the Activity (HeLa [7]) was roughly 50% and the viability at 4 µM (HeLa [8]) was 91.4%. For the same molecule, the Activity (HeLa [9]) was 2.73%, the viability at 6 µM (HeLa [10]) was 65% and the Activity (HeLa [11]) was 30.6%. For the same molecule, the viability at 8 µM (HeLa [12]) was 52.2%, the viability at 10 µM (HeLa [13]) was 45.3% and the Activity (HeLa [14]) was 22.7%. For the same molecule, the Activity (HeLa [15]) was “Active”, the Activity (HeLa [16]) was “Active” and the Activity (HeLa [17]) was “Dose-Dependent Effect”. The Activity (HeLa [18]) was 5%, the Activity (HeLa [19]) was 10% and the Activity (HeLa [20]) was “Not toxic”. For the same molecule, the Activity (HeLa [21]) was “Not toxic” and the Activity (HeLa [22]) was “Active”.
With CCC/C=C/C=C/C(=O)O[C@@H]1C[C@H]2[C@@H](CCCC[C@H](O)CCC)CCC[C@H]2N[C@H]1C the IC50 (HeLa [1]) was 2.52 µM, the IC50 (SMMC-7721) was 4.09 µM and the IC50 (A549) was 4.68 µM. For the same molecule, the IC50 (MCF7) was 5.03 µM, the IC50 (SH-SY5Y) was 5.8 µM and the IC50 (HepG2) was 6.2 µM. For the same molecule, the IC50 (NCI-H1155) was 7.06 µM, the IC50 (SK-OV-3) was 8.02 µM and the IC50 (MDA-MB-231) was 8.51 µM. The IC50 (NCI-H1355) was 9.3 µM, the IC50 (L02) was 12.5 µM and the inhibition (HeLa [2]) was “Dose-Dependent Effect”. The inhibition (HeLa [3]) was “Dose-Dependent Effect”, the inhibition (HeLa [4]) was “Active” and the inhibition (HeLa [5]) was “inactive”. The Activity (HeLa [6]) was “Active”, the Activity (HeLa [7]) was roughly 70% and the viability at 4 µM (HeLa [8]) was 91.8%. The viability at 6 µM (HeLa [10]) was 88.4%, the viability at 8 µM (HeLa [12]) was 76.1% and the viability at 10 µM (HeLa [13]) was 26.1%. The Activity (HeLa [23]) was 2.52%, the Activity (HeLa [15]) was “Active” and the Activity (HeLa [16]) was “Active”. The viability at 10 µM (HeLa [24]) was 20.6%, the Activity (HeLa [25]) was 2.34% and the Activity (HeLa [17]) was “Dose-Dependent Effect”. The Activity (HeLa [18]) was 5%, the Activity (HeLa [19]) was 10% and the Activity (HeLa [20]) was “Not toxic”. For the same molecule, the Activity (HeLa [21]) was “Not toxic”, the Activity (HeLa [26]) was “Active” and the Activity (HeLa [27]) was “Active”. The Activity (B16-F10) was “Active”, the Activity [28] was “Non-Toxic” and the Activity [29] was “Non-Toxic”.
